Assay results taken from paper doi:10.1101/2024.03.25.586180v1 (biorxiv, 2024).

Biological target: T1, BT2 (Bacteroides thetaiotaomicron, UniProt Q8A5T1)
T1 sequence (Q8A5T1 20-290): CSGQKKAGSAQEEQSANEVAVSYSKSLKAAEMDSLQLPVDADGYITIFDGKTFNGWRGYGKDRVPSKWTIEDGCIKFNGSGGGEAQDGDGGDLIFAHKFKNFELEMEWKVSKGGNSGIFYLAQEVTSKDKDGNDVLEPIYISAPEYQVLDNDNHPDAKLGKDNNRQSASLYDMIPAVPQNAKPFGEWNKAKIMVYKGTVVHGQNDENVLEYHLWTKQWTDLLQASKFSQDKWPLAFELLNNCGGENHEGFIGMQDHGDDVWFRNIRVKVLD
Test: 1H-NMR, elimination
Assay type: biochemical
Details: elimination to 3-keto-2-hydroxy-glucal

- 1H-NMR, elimination: while AL/BT2 do so on the α anomer
Structure (SMILES): CO[C@H]1O[C@H](CO)[C@@H](O)C(=O)[C@H]1O [3-keto methyl α-glucoside]
